# System: PD patients
# Test: fMRI of PD patients performing paced finger tapping (PFT), on and off dopamine supplementation
# Assay type: in vivo
# Method: In this fMRI study, ten PD patients and thirteen healthy age-matched controls were imaged while performing the PFT. PD patients underwent two imaging sessions, one on and the other off dopamine supplementation. For this study whole-brain fMRI was performed on a 1.5 Tesla General Electric Signa scanner equipped with a 3-axis local gradient head coil and an elliptical end-capped quadrature radiofrequency coil. Foam padding was used to limit head motion within the coil. Echo-planar images were collected using a single-shot, blipped gradient-echo echo-planar pulse sequence (TE=40 ms, TR=3.0 seconds, 90° flip angle, FOV=240 mm, matrix=64×64). Twenty-two contiguous sagittal 6 mm thick slices were collected to provide coverage of the entire brain (voxel size 3.75×3.75×6 mm). Overall, a total of 136 images were collected per run. Prior to functional imaging, high-resolution, three-dimensional, spoiled gradient-recalled at steady-state (GRASS) anatomic images were collected (TE=5 ms, TR=24 ms, 40° flip angle, NEX=1, slice thickness=1.2 mm, FOV=24 cm, matrix=256×128) for anatomic localization and co-registration.
compound,measurement,setting,value
N[C@@H](Cc1ccc(O)c(O)c1)C(=O)O [Levodopa],effect on the S task (fMRI activation),"PD patients ON vs OFF medication, S condition of PFT task",relatively little effect
same,"spatial extent of activation within the SMC, SMA, and putamen","PD patients, fMRI during PFT, on vs off dopamine replacement",increase
same,brain activation patterns,"PD patients, fMRI during PFT, relative to healthy controls",partially “normalized”
same,PFT performance,"PD patients, on vs off dopamine supplementation",lack of improvement

# From patent US20050107682A1, “fMRI system for use in assessing the efficacy of therapies in treating CNS disorders” (priority 2003, published 2005)
